# Measurements taken from patent US20060079497A1, “Lavendamycin analogues and methods of synthesizing and using lavendamycin analogues” (Ball State University, priority 2004, published 2006).
# Experiments:
# mice [1] = experiment: Animal toxicity studies in mice (National Cancer Institute and other studies); settings: SCID mice, 300 mg/kg/day for 10 days
# mice [2] = settings: cited from earlier work
# tumor = experiment: Antitumor activity (applicant's earlier studies)
# [3] = Animal toxicity studies in mice (National Cancer Institute and other studies); settings: mouse, in vivo
# [4] = Cytotoxicity assay (MTT), human lymphocytic cell lines, pooled data; assay type: cell-based; settings: human lymphocytic cell lines CCRF-CEM and H-9, pooled data, H-9 and CEM inhibited by 50%, read-out: Mean CC50 (Human Cell Lines) ± SEM (no. of expts)
# Method: (§1) Normal murine spleen cells were washed in HBSS, cultured at 2.5×10^6 or 5×10^6 cells per mL in RPMI 1640 (with Hepes) complete medium with 2 mM-L-glutamine, 1 mM sodium pyruvate, 0.05 mM β-mercaptoethanol, penicillin, streptomycin, and amphotericin B with 10% fetal calf serum and Concanavalin A (ConA) at 2.5 μg/mL in a 96-well microtiter plate. A range of diluted analogs were added to triplicate culture wells and the cells were incubated at 37° C. in 5% CO2. Wells containing cells, media and ConA were used as controls. Forty-eight hours post incubation, 20 μL of the vital dye MTT (3-[4,5-Dimethylthiazol-2-yl]-2,5-diphenyltetrazolium bromide; thiazolyl blue) at 5 mg/mL was added to each well and the cultures re-incubated for 4-6 hours. Following centrifugation, the supernatants were decanted and the stained cells were resuspended in 100 μL of 0.4% HCl acidified isopropanol. The optical densities of each well were read at 600 nm using a Cambridge Technologies series 700 microplate reader. The human lymphocytic cell lines CCRF-CEM (ATCC: HTB 176) and H-9 (ATCC: CCL 119) were subcultured from recently cultured cells grown in complete RPMI 1640 medium as described above but without the β-mercaptoethanol and ConA at 6.25×10^5 and 2×10^6 per mL in a 96 well culture plate. These cell numbers represented log phase and early stationary phase of the freshly cultured cells. As these cell lines rapidly reproduce without mitogenic stimulation, Con A was not used. A range of analogues or media alone was added in triplicate to the cultures and the cultures incubated, pulsed with MTT, harvested and their growth estimated as described above for the murine cultures. The CC50 or the concentration of drug which inhibited cell growth as estimated by MTT formazan production to 50% of that of untreated control cells was determined by linear interpolation for each lavendamycin analog.
# [5] = molecular target: T1, HIV reverse transcriptase (HIV-RT) (Human immunodeficiency virus type 1 group M subtype B, UniProt P04585); experiment: HIV-RT assay (3H-TTP incorporation, modified assay of Okada et al.); assay type: biochemical; settings: Mean IC50 ± SEM (no. of expts), 50% inhibition of HIV RT activity toward 1 unit of enzyme
# T1 construct: 1 unit/mL of HIV-RT (Worthington Biochemical Corp., Freehold, N.J.); purchased Worthington Biochemical Corp., Freehold, N.J
# Method: Briefly, the analogues were initially dissolved in either DMSO or HEPES buffer (pH 7.2) and then diluted to the appropriate concentration before addition to the assay mixtures. […] Several control wells without any inhibitors were also included on each microtiter plate. The reactions were allowed to proceed for 1 h at 37° C. […] A more detailed description of reaction conditions is provided below in the Examples. The concentration of drug which inhibited 50% of the enzyme activity (IC50) was determined by using the computer software program Calcusyn, which plots the dose-effect curves from the inhibition data and calculates the IC50 for each drug.
# The assay procedure described below is adapted from Okada et al. (Okada, H.; Mukai, H.; Inouye, Y; Nakamura, S. “Biological Properties of Streptonigrin Derivatives II. Inhibition of Reverse Transcriptase Activity,” J. Antibiot., 1986, 39, 306-308). The lavendamycin analogs were initially dissolved in DMSO at a concentration of 1 mg/mL. Occasionally, mild sonication and heat were used to dissolve the less soluble compounds. The dissolved analogs were then serially diluted in distilled water to achieve concentrations in the final reaction mixture ranging from 0.5-15 μM. In addition to the lavendamycin analogs, the final reaction mixture contained 100 mM Tris-HCl (pH 8.0), 5 mM MgCl2, 5 mM dithiothreitol, 60 mM NaCl, 0.2 mM [^3H] thymidine triphosphate(5 μCi well), 4 μg/mL poly (rA)-oligo(dT)12-18 (Amersham Pharmacia Biotech, Piscataway, N.J.) and 1 unit/mL of HIV-RT (Worthington Biochemical Corp., Freehold, N.J.) in a total volume of 300 μL. For each assay, the reaction mixture containing 8× buffer, double distilled H2O, ^3HTTP, template-primer and HIV-RT was pre-mixed in a 15-mL sterile tube in quantities required for the particular experiment. After adding the enzyme, the reaction mixture was mixed and kept on ice. The inhibitors, either AZT(Moravek Biochemicals, Brea, Calif.), analogs or both were added to appropriate wells in a 24 well microtiter plate and ddH2O was added to each well to bring the volume of all test wells to 100 μL. Two hundred μL of the chilled reaction mixture was then added to each of the test wells, mixed, and incubated for 1 hr at 37° C. Several control wells with no inhibitors were included on each test plate. After stopping the reactions with 25 μL 0.1 M EDTA, triplicate samples of 15 μL from each test well were spotted on DE81 ion exchange filter paper squares (Whatman Paper, Maidstone, England). After drying, each filter was washed for 10 minutes three times with 5% TCA-NHPO4, three times with 0.6M NaCl-[…] Na Citrate, one time with ddH2O and one time with 95% ethanol. After drying the individual filter papers were added to 5 mL Scintiverse E (Fisher Scientific, Chicago, Ill.) scintillation fluid and the amount of 3H-TTP uptake measured as counts per minute on a Beckman liquid scintillation counter. […] The results were then analyzed using Calcusyn, a windows software program for dose effect analysis designed by T. -C. Chou and M. P. Hayball and published by Biosoft® (UK).
# [6] = Cytotoxicity assay (MTT), normal murine spleen cells stimulated with concanavalin A; assay type: cell-based; settings: normal murine spleen cells stimulated with concanavalin A; normal mouse spleen stimulated with concanavalin A inhibited by 50%; read-out: Mean CC50 (Normal Mouse Spleen) ± SEM (no. of expts)
# Method: as §1
compound,measurement,setting,value
"CCCCCCCCOC(=O)c1cc2c([nH]c3ccccc32)c(-c2ccc3c(n2)C(=O)C(NC(C)=O)=CC3=O)n1 [Compound 15, 7-N-Acetyldemethyllavendamycin n-Octyl Ester]",tolerability,mice [1],no animal death or loss of weight
COc1cccc2c1C(=O)c1c(O)c3c(c(O)c1C2=O)C[C@@](O)(C(=O)CO)C[C@@H]3O[C@H]1C[C@H](N)[C@H](O)[C@H](C)O1 [adriamycin],maximally tolerated dose,mice [2]; once a week for three weeks,below 10 mg/kg
COC(=O)c1cc2c([nH]c3ccccc32)c(-c2ccc3c(n2)C(=O)C(N)=C(OC)C3=O)n1,melting point,,> 280 °C
Cc1c(C(=O)O)nc(-c2ccc3c(n2)C(=O)C(N)=CC3=O)c2[nH]c3ccccc3c12 [lavendamycin],maximum tolerated dose,mice [2]; reported,12.8 mg/kg
COC(=O)c1nc(-c2ccc3c(n2)C(=O)C(N)=C(OC)C3=O)c2[nH]c3ccccc3c2c1C,melting point,,> 280 °C
"COC(=O)c1nc(-c2ccc3c(n2)C(=O)C(N)=CC3=O)c2[nH]c3ccccc3c2c1C [Compound 2b, lavendamycin methyl ester, reference compound]",antitumor activity,tumor,highly active antitumor agents
COC1=C(N)C(=O)c2nc(-c3nc(C(=O)O)c(C)c(-c4ccc(OC)c(OC)c4O)c3N)ccc2C1=O [streptonigrin],lethal dose,mice [2],≥ 0.4 mg/kg
"NC(=O)c1cc2c([nH]c3ccccc32)c(-c2ccc3c(n2)C(=O)C(N)=CC3=O)n1 [Compound 21, Demethyllavendamycin Amide]",MTD,[3],400 mg/kg
same,CC50 at 48 h,[4],17 ± 3 µM
same,antitumor activity,tumor,highly active antitumor agents
same,IC50,[5],20.5 ± 5 µM
same,CC50 at 48 h,[6],15 ± 2 µM
